The results in this text go back to patent EP4810052A2, “HCRHR2 SELECTIVE POLYPEPTIDES” (Gubra A/S, priority 2023, dated 2026).

The target in series [1] is T1, hCRHR2 (Homo sapiens, UniProt Q13324).
T1 sequence (Q13324 1-411): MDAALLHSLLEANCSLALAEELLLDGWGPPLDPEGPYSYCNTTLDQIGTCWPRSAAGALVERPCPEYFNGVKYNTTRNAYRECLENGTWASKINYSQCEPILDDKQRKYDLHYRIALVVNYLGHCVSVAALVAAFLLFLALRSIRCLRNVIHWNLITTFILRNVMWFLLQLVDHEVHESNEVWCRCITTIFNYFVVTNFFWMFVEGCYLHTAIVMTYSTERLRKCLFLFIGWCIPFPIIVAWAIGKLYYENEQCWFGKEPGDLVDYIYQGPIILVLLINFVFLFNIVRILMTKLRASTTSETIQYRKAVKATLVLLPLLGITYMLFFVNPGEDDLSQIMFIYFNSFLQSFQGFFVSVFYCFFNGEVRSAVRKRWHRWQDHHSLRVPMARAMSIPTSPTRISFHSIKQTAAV
The series is described as follows: HTRF cAMP assay, determination of hCRHR2 potency (peptide libraries 5 conc., purified peptides 11 conc.). The series is classed as cell-based. The following applies: for EC50: read-out: hCRHR2 EC50. The method in brief:
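Cells: CHO-K1/hCRHR2 stable clone, suspension, freshly thawed. Readout: competitive TR-FRET, anti-cAMP cryptate vs cAMP-d2. Analysis: sigmoid variable-slope nonlinear regression → EC50.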

Series [2] deals with T2, hCRHR1 (Homo sapiens, UniProt P34998).
T2 sequence (P34998 24-415): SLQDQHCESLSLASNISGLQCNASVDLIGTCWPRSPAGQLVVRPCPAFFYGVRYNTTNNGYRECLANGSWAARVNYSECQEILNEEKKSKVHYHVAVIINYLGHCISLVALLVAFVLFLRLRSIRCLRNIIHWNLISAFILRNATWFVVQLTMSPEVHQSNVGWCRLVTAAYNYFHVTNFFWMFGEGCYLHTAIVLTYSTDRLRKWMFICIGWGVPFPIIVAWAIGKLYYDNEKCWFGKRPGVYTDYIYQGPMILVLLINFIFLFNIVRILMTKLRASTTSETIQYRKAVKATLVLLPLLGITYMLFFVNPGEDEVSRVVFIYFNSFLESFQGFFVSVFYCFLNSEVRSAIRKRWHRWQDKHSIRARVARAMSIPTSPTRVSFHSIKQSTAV
The series is described as follows: HTRF cAMP assay, determination of hCRHR1 potency (peptide libraries 5 conc., purified peptides 11 conc.). It is filed as cell-based. The method in brief:
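Cellular cAMP was read by time-resolved FRET between d2-labelled cAMP and cryptate anti-cAMP antibody. The cells were freshly thawed suspension CHO-K1 cells stably expressing human CRHR1.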

Series [3] is described as follows: Thioflavin T fibril formation assay of purified peptides. Also noted: key: Amyloid fibril formation detected by an increase in ThT fluorescence was denoted with "Yes"; samples without increasing ThT fluorescence hence not forming amyloid fibrils were denoted "No". It is filed as physicochemical. The method in brief: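 Fibril formation read as rising ThT emission at 480 nm (450 nm excitation), 4 µM ThT, over 96 h at 40°C with alternating 5-min rest and 700 rpm shaking cycles, in triplicate. Samples were 200 µM compound in 50 mM phosphate at various pH values, or co-formulated at 200 µM in semaglutide product at pH 7.4.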

Series [4] is described as follows: PK in rats. It is filed as in vivo. Set-up: T½ / MRT: unit not given here. The following applies: for half-life: read-out: T½ (converted). Here is the method: Lean male Sprague Dawley rats (RJHan:SD) were obtained from JanVier (JanVier Labs, France) at 7 weeks of age. The animals were pair housed until randomization under a 12/12 h dark-light cycle, light off at 3 PM. Room temperature was controlled to 22°C ± 1°C, with 60 % ± 20% humidity.
Animals had ad libitum access to regular rodent chow (Altromin 1324, Brogaarden, Denmark) and tap water.
After 2 weeks of acclimatization, the animals were single housed and randomized into treatment groups (n = 3 per group) based on body weight on study day -3. On study day 1, animals were dosed 50 nmol/kg IV and SC in combination of two peptides. Plasma samples were collected for PK analysis at times 0.17, 1, 3, 6, 24, 30, 48, 72 and 96 hours post dosing. Plasma samples were analyzed using LC-MSMS and PK parameters were estimated by Non-Compartmental Analysis (NCA).

Where [5] appears, read: Table 5, purified peptides, read-out: hCRHR1 EC50.
Setting [6] is: male, Sprague Dawley (RJHan:SD), in vivo, iv, Rat, 50 nmol/kg i.v.
The mark [7] stands for this setting: male, Sprague Dawley (RJHan:SD), in vivo, sc, Rat, 50 nmol/kg s.c.

Molecules are shown by their SMILES. Read-outs that look alike come from different tables or passages of the source. Starred links: 1 amine or outer side, 2 acyl side, 3 side chain; linkers in the order of their positions; H or OH if unused. Non-standard residues stand in square brackets, D forms with d. Residues, ends and D or L forms follow the SMILES beside them. Groups on a side chain read outwards from the residue. *: point of attachment. C20 diacid = O=C(O)CCCCCCCCCCCCCCCCCCC(=O)*; γGlu = O=C(O)[C@H](CCC(=O)[*:2])N[*:1]; NMeI = CC[C@H](C)[C@H](NC)C(=O)O; Nle = CCCC[C@H](N)C(=O)O; AEEA = NCCOCCOCC(=O)O; Aib = CC(C)(N)C(=O)O

In the case of `CCCC[C@H](NC(=O)[C@@H](NC(=O)[C@H](CCC(=O)O)NC(=O)[C@H](C)NC(=O)[C@H](CC(N)=O)NC(=O)C(C)(C)NC(=O)[C@H](CCCCNC(=O)COCCOCCNC(=O)COCCOCCNC(=O)CC[C@H](NC(=O)CC[C@H](NC(=O)CCCCCCCCCCCCCCCCCCC(=O)O)C(=O)O)C(=O)O)NC(=O)[C@H](C)NC(=O)[C@H](CCC(N)=O)NC(=O)[C@H](CCC(=O)O)NC(=O)[C@H](CCCNC(=N)N)NC(=O)[C@H](C)NC(=O)[C@H](C)NC(=O)[C@H](CCCNC(=N)N)NC(=O)[C@H](C)NC(=O)[C@H](CCCNC(=N)N)NC(=O)[C@H](C)NC(=O)[C@H](CCC(N)=O)NC(=O)[C@H](CO)NC(=O)[C@H](CC(C)C)NC(=O)[C@H](CC(C)C)NC(=O)[C@@H](NC(=O)[C@H](CCC(N)=O)NC(=O)[C@H](CC(C)C)NC(=O)[C@H](CC(C)C)NC(=O)CNC(=O)[C@@H](NC(=O)[C@@H]1CCCN1C(=O)[C@@H](NC(=O)[C@H](CC(=O)O)NC(=O)[C@H](CC(C)C)NC(=O)[C@H](CO)NC(=O)[C@H](CC(C)C)NC(=O)[C@@H](NC(=O)[C@@H](N)[C@@H](C)CC)C(C)C)C(C)C)[C@@H](C)CC)[C@@H](C)CC)[C@@H](C)CC)C(=O)N[C@@H](C)C(=O)N[C@@H](CCC(=O)O)C(=O)N[C@H](C(N)=O)C(C)C` [compound 237] (H-IVLSLDVPIGLLQILLSQARARAAREQAK([AEEA-AEEA-γGlu-γGlu-C20 diacid])[Aib]NAEI[Nle]AEV-NH2), the “Selectivity ratio (hCRHR1/ hCRHR2)” value in series [1] (Table 5) is over 6494. Moreover, in series [1] (Table 5, purified peptides), the half-maximal effective concentration (EC50) was found to be 0.77 nM. The EC50 in series [2] (setting [5]) is over 5000 nM. The “Fibrillation (pH 7.5)” value in series [3] (pH 7.5) is given as “No”. Besides, in series [4] (Rat), the MRT was determined as 5.1 and the T½ was 4.1. Under “pH 7.5”, the “Solubility pH 7.5, target conc. =10 mg/mL (measured mg/mL)” value is 10 mg/mL.
Turning to `CC[C@H](C)[C@H](NC)C(=O)N[C@H](C(=O)N[C@@H](CC(C)C)C(=O)N[C@@H](CO)C(=O)N[C@@H](CC(C)C)C(=O)N[C@@H](CC(=O)O)C(=O)N[C@H](C(=O)N1CCC[C@H]1C(=O)N[C@H](C(=O)NCC(=O)N[C@@H](CC(C)C)C(=O)N[C@@H](CC(C)C)C(=O)N[C@@H](CCC(N)=O)C(=O)N[C@H](C(=O)N[C@@H](CC(C)C)C(=O)N[C@@H](CC(C)C)C(=O)N[C@@H](CCC(=O)O)C(=O)N[C@@H](CCC(N)=O)C(=O)N[C@@H](C)C(=O)N[C@@H](CCCNC(=N)N)C(=O)N[C@@H](C)C(=O)N[C@@H](CCCNC(=N)N)C(=O)N[C@@H](C)C(=O)N[C@@H](C)C(=O)N[C@@H](CCCNC(=N)N)C(=O)N[C@@H](CCC(=O)O)C(=O)N[C@@H](CCC(N)=O)C(=O)N[C@@H](C)C(=O)N[C@@H](CCCCNC(=O)COCCOCCNC(=O)COCCOCCNC(=O)CC[C@H](NC(=O)CC[C@H](NC(=O)CCCCCCCCCCCCCCCCCCC(=O)O)C(=O)O)C(=O)O)C(=O)N[C@H](C(=O)N[C@@H](CC(N)=O)C(=O)N[C@@H](C)C(=O)N[C@@H](CCC(=O)O)C(=O)N[C@H](C(=O)N[C@@H](CC(C)C)C(=O)N[C@@H](C)C(=O)N[C@@H](CCC(=O)O)C(=O)N[C@H](C(N)=O)C(C)C)[C@@H](C)CC)[C@@H](C)O)[C@@H](C)CC)[C@@H](C)CC)C(C)C)C(C)C` [SEQ ID NO: 5] (H-[NMeI]VLSLDVPIGLLQILLEQARARAAREQAK([AEEA-AEEA-γGlu-γGlu-C20 diacid])TNAEILAEV-NH2), in series [1] (hCRHR1-EC50/hCRHR2-EC50), the “Selectivity ratio (hCRHR1/ hCRHR2)” value is over 4167. Also, the EC50 in series [1] (purified peptides, CHO-K1 cells stably expressing hCRHR2, cAMP HTRF) was 1.2 nM; in series [2] (purified peptides, CHO-K1 cells stably expressing hCRHR1, cAMP HTRF, read-out: hCRHR1 EC50), over 5000 nM. Besides, the “Fibrillation (pH 7.5)” value in series [3] (pH 7.5, ThT assay) is “No”. The MRT in series [4] (Rat) was found to be 7.9. Moreover, the T½ in series [4] (Rat) is given as 8.6. Further, the “Solubility pH 7.5, target conc. =10 mg/mL (measured mg/mL)” value (pH 7.5) is 11 mg/mL.
For the compound `CCCC[C@H](NC(=O)[C@@H](NC(=O)[C@H](CCC(=O)O)NC(=O)[C@H](C)NC(=O)[C@H](CC(N)=O)NC(=O)C(C)(C)NC(=O)[C@H](CCCCNC(=O)COCCOCCNC(=O)COCCOCCNC(=O)CC[C@H](NC(=O)CC[C@H](NC(=O)CCCCCCCCCCCCCCCCCCC(=O)O)C(=O)O)C(=O)O)NC(=O)[C@H](C)NC(=O)[C@H](CCC(N)=O)NC(=O)[C@H](CCC(=O)O)NC(=O)[C@H](CCCNC(=N)N)NC(=O)[C@H](C)NC(=O)[C@H](C)NC(=O)[C@H](CCCNC(=N)N)NC(=O)[C@H](C)NC(=O)[C@H](CCCNC(=N)N)NC(=O)[C@H](C)NC(=O)[C@H](CCC(N)=O)NC(=O)[C@H](CO)NC(=O)[C@H](CC(C)C)NC(=O)[C@H](CC(C)C)NC(=O)[C@@H](NC(=O)[C@H](CCC(N)=O)NC(=O)[C@H](CC(C)C)NC(=O)[C@H](CC(C)C)NC(=O)CNC(=O)[C@@H](NC(=O)[C@@H]1CCCN1C(=O)[C@@H](NC(=O)[C@H](CC(=O)O)NC(=O)[C@H](CC(C)C)NC(=O)[C@H](CO)NC(=O)[C@H](CC(C)C)NC(=O)[C@@H](NC(=O)[C@@H]1CCCN1)C(C)C)C(C)C)[C@@H](C)CC)[C@@H](C)CC)[C@@H](C)CC)C(=O)N[C@@H](C)C(=O)N[C@@H](CCC(=O)O)C(=O)N[C@H](C(N)=O)C(C)C` [SEQ ID NO: 238] (H-PVLSLDVPIGLLQILLSQARARAAREQAK([AEEA-AEEA-γGlu-γGlu-C20 diacid])[Aib]NAEI[Nle]AEV-NH2), in series [1] (Table 5), the “Selectivity ratio (hCRHR1/ hCRHR2)” value was over 6329. Besides, the EC50 in series [1] (Table 5, purified peptides) is 0.79 nM. Also, the EC50 in series [2] (setting [5]) is over 5000 nM. Besides, the EC50 in series [2] (stable cell system, Table 10, read-out: Stable EC50 (nM) hCRHR 1) was over 5000 nM. For the same compound, in series [3] (200 µM compound dissolved in semaglutide drug product, pH 7.4, listed as None = drug product alone), the “Amyloid fibril formation + semaglutide (Ozempic®), pH 7.4” value is listed as “No”. Further, in series [3] (200 µM in 50 mM phosphate buffer, pH 7.0), the “Amyloid fibril formation pH 7.0” value is given as “No”. Moreover, in series [3] (200 µM in 50 mM phosphate buffer, pH 7.5), the “Amyloid fibril formation pH 7.5” value is “No”. In addition, in series [3] (200 µM in 50 mM phosphate buffer, pH 8.0), the “Amyloid fibril formation pH 8.0” value was “No”. Moreover, in series [3] (pH 7.5), the “Fibrillation (pH 7.5)” value is reported as “No”. In series [4] (Rat), the MRT is 14.2 and the T½ amounted to 10.2. In addition, in series [4] (setting [6]), the clearance was 0.117 mL/min/kg and the half-life was 10.2 h. Moreover, in series [4] (setting [7]), the Cmax was found to be 91 nM, the Tmax amounted to 24 h and the half-life was 11 h. Further, the bioavailability in series [4] (male, Sprague Dawley, rat, in vivo, sc) was 43%. The “Solubility pH 6.5 (mg/ml)” value (pH 6.5) came to 20.4 mg/ml. Moreover, where the note is “pH 7”, the “Solubility pH 7.0 (mg/mL)” value was found to be 20.6 mg/mL. Besides, where the note is “pH 7.5”, the “Solubility pH 7.5 (mg/mL)” value was 18.0 mg/mL; the “Solubility pH 7.5 + phenol (mg/mL)” value came to 17.9 mg/mL; the “Solubility pH 7.5, target conc. =10 mg/mL (measured mg/mL)” value turned out to be 11 mg/mL.
